Experimental data taken from PubChem BioAssay (NCI).
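A five-concentration, 48-hour dose response in 96-well plates underlies each endpoint, interpolated linearly between surrounding concentrations. TGI: total growth inhibition.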

Legend:
Assay in all cases: growth of human tumour cells (NCI), 48 h
[1] = system: K-562 leukemia
[2] = system: UO-31 renal
[3] = system: BT-549 breast
[4] = system: MOLT-4 leukemia
[5] = system: SNB-19 CNS
[6] = system: SF-539 CNS
[7] = system: SW-620 colon
[8] = system: EKVX NSCLC
[9] = system: MDA-MB-435
[10] = system: CAKI-1 renal
[11] = system: UACC-257 melanoma
[12] = system: NCI-H23 lung
[13] = system: NCI-H460 lung
[14] = system: MDA-N
[15] = system: HT29 colon
[16] = system: COLO 205 colon
[17] = system: HOP-92 NSCLC
[18] = system: HCT-116 colon
[19] = system: NCI-H226 lung
[20] = system: U251 CNS
[21] = system: CCRF-CEM leukemia
[22] = system: SK-MEL-5 melanoma
[23] = system: LOX IMVI melanoma
[24] = system: SF-268 CNS
[25] = system: SF-295 CNS
[26] = system: ACHN renal
[27] = system: RPMI-8226 leukemia
[28] = system: HCT-15 colon
[29] = system: KM12 colon
[30] = system: OVCAR-3 ovarian
[31] = system: NCI/ADR-RES ovarian
[32] = system: DU-145 prostate
[33] = system: OVCAR-5 ovarian
[34] = system: HL-60(TB) leukemia
[35] = system: RXF 393 renal
[36] = system: HS 578T breast
[37] = system: MDA-MB-231 breast
[38] = system: T-47D breast
[39] = system: OVCAR-4 ovarian
[40] = system: PC-3 prostate
[41] = system: NCI-H522 lung
[42] = system: A498 renal
[43] = system: SN12C renal
[44] = system: TK-10 renal
[45] = system: MCF7 breast
[46] = system: M14 melanoma
[47] = system: A549 NSCLC
[48] = system: SK-OV-3 ovarian
[49] = system: HOP-62 NSCLC
[50] = system: UACC-62 melanoma
[51] = system: IGROV1 ovarian
[52] = system: HCC-2998 colon
[53] = system: 786-0 renal
[54] = system: SK-MEL-28 melanoma
[55] = system: OVCAR-8 ovarian
[56] = system: SK-MEL-2 melanoma
[57] = system: SNB-75 CNS
[58] = system: SR leukemia

In the case of `CCc1nc(N)nc(N)c1-c1ccc(Cc2ccccc2)c([N+](=O)[O-])c1`, the TGI [1] is reported as > 59.5 µM, the TGI [2] is reported as > 54.5 µM and the TGI [3] is reported as > 65.8 µM. The TGI [4] was > 63.1 µM, the TGI [5] was > 100 µM and the TGI [6] was > 62.4 µM. For the same compound, the TGI [7] was > 64.2 µM, the TGI [8] was > 58.8 µM and the TGI [9] was > 100 µM. The TGI [10] was > 100 µM, the TGI [11] was > 71 µM and the TGI [12] was > 60.4 µM. The TGI [13] was > 60.8 µM, the TGI [14] was > 81.8 µM and the TGI [15] was > 61.5 µM. For the same compound, the TGI [16] was > 65.4 µM, the TGI [17] was > 59.3 µM and the TGI [18] was > 61.1 µM. For the same compound, the TGI [19] was > 68.9 µM, the TGI [20] was > 65.5 µM and the TGI [21] was > 62 µM. The TGI [22] was > 100 µM, the TGI [23] was > 80.9 µM and the TGI [24] was > 56.2 µM. For the same compound, the TGI [25] was > 65.5 µM, the TGI [26] was > 61.2 µM and the TGI [27] was > 54.3 µM. The TGI [28] was > 59.7 µM, the TGI [29] was > 62.4 µM and the TGI [30] was > 76 µM. The TGI [31] was > 62.8 µM, the TGI [32] was > 76.3 µM and the TGI [33] was > 100 µM. For the same compound, the TGI [34] was > 53.4 µM, the TGI [35] was > 84.3 µM and the TGI [36] was > 67.1 µM. The TGI [37] was > 70.8 µM, the TGI [38] was > 85.4 µM and the TGI [39] was > 93.3 µM. For the same compound, the TGI [40] was > 100 µM, the TGI [41] was > 35.8 µM and the TGI [42] was > 74.2 µM. For the same compound, the TGI [43] was > 100 µM, the TGI [44] was > 71.4 µM and the TGI [45] was > 65.1 µM. The TGI [46] was > 84.9 µM, the TGI [47] was > 70.7 µM and the TGI [48] was > 83.6 µM. For the same compound, the TGI [49] was > 69.7 µM, the TGI [50] was > 65.6 µM and the TGI [51] was > 64.2 µM. For the same compound, the TGI [52] was > 64.6 µM, the TGI [53] was > 60.7 µM and the TGI [54] was > 100 µM. For the same compound, the TGI [55] was > 62.1 µM, the TGI [56] was > 100 µM and the TGI [57] was > 60 µM. It also gave a TGI [58] of 6.11 µM.
